Three compounds from ChEMBL document CHEMBL4270553, “Synthesis and anticancer activity of new dihydropyrimidinone derivatives” (Eur J Med Chem, 2018) can be followed below.

For orientation: IC50 means the concentration needed to halve the response being measured. A higher IC50 goes with weaker potency. A word on the inhibition: it is how much of the control response was suppressed. Low readings indicate little suppression, high ones strong suppression.

Assay [1] concerns the target Kinesin-like protein KIF11 (Homo sapiens, UniProt P52732). The experiment in a line: Inhibition of human Eg5.
In another assay the test system is MCF7. The experiment in a line: Cytotoxicity against human MCF7 cells after 24 hrs by MTT assay. The format is functional, cell-based. As to conditions: MCF7, 24 h. For orientation: Formazan colour is commonly taken as a measure of viable cells.
For another assay, the system named is MRC5. As to the kind of experiment: Cytotoxicity against human MRC5 cells. The format is cell-based.
The test system of the next assay is BJ. As to the kind of experiment: Cytotoxicity against human BJ cells. The format is cell-based.
Assay [2] is described as follows: Cytotoxicity against human WPE1-NA22 cells. In kind it is cell-based.
The target in assay [3] is Vascular endothelial growth factor receptor 2 (Homo sapiens, UniProt P35968).
Sequence of Vascular endothelial growth factor receptor 2 (P35968 whole entry): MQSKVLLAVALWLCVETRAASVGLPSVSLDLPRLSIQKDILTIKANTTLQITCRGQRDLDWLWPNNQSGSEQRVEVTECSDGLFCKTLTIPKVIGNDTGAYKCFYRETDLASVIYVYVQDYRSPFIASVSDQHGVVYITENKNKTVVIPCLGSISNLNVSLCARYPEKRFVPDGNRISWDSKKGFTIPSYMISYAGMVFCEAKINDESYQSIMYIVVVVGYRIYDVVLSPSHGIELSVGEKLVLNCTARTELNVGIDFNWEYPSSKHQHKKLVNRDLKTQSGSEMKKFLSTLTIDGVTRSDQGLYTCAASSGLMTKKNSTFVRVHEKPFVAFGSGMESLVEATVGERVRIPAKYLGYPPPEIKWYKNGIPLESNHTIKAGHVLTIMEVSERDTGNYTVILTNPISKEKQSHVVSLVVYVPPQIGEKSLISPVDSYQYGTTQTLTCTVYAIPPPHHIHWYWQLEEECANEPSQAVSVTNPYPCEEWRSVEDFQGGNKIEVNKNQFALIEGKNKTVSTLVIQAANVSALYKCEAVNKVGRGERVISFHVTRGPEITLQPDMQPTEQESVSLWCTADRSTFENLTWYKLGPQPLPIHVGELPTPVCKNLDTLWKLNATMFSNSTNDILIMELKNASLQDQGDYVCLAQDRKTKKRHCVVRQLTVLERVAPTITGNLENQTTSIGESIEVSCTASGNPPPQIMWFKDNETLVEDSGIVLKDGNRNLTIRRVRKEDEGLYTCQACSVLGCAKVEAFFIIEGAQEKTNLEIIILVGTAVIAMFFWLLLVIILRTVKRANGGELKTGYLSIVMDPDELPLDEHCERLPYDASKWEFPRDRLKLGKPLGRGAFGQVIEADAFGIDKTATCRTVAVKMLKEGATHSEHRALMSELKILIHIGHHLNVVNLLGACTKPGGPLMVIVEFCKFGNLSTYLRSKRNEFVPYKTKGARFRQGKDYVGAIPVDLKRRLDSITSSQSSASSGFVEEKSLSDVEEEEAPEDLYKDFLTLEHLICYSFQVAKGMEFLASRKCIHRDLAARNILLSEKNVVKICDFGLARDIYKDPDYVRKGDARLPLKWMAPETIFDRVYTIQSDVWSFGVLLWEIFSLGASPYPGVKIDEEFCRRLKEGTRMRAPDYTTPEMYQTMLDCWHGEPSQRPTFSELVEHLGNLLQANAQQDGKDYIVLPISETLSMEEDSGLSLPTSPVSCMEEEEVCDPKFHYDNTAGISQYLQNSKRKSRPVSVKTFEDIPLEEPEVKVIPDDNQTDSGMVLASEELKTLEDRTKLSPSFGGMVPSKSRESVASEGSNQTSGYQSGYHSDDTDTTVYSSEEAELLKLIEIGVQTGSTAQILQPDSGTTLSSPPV
Description: Inhibition of human VEGFR-2 incubated for 2.5 hrs by ELISA
Assay [4] deals with T1, Serine/threonine-protein kinase mTOR (Homo sapiens, UniProt P42345). As to the kind of experiment: Inhibition of mTOR (unknown origin) incubated for 1 hr by ELISA relative to control. As to conditions: concentration not given here. On the technique in general: ELISA stands for enzyme-linked immunosorbent assay.
Assay [5] has as its target T1, Serine/threonine-protein kinase mTOR. As to the kind of experiment: Inhibition of mTOR (unknown origin) incubated for 1 hr by ELISA.
In the next assay the test system is HeLa. The experiment in a line: Cytotoxicity against human HeLa cells. In kind it is functional, cell-based.
The subject of the next assay is PC-3. The experiment in a line: cells. As to conditions: Homo sapiens, PC-3, 24 h.
For the next assay, the system named is HCT-116. As to the kind of experiment: cells. As to conditions: Homo sapiens, HCT-116, 24 h.
A further assay deals with NCI-H1299. As to the kind of experiment: Cytotoxicity against human NCI-H1299 cells after 24 hrs by MTT assay. In kind it is functional, cell-based. As to conditions: NCI-H1299, 24 h.

Sequence of Kinesin-like protein KIF11 (P52732 whole entry): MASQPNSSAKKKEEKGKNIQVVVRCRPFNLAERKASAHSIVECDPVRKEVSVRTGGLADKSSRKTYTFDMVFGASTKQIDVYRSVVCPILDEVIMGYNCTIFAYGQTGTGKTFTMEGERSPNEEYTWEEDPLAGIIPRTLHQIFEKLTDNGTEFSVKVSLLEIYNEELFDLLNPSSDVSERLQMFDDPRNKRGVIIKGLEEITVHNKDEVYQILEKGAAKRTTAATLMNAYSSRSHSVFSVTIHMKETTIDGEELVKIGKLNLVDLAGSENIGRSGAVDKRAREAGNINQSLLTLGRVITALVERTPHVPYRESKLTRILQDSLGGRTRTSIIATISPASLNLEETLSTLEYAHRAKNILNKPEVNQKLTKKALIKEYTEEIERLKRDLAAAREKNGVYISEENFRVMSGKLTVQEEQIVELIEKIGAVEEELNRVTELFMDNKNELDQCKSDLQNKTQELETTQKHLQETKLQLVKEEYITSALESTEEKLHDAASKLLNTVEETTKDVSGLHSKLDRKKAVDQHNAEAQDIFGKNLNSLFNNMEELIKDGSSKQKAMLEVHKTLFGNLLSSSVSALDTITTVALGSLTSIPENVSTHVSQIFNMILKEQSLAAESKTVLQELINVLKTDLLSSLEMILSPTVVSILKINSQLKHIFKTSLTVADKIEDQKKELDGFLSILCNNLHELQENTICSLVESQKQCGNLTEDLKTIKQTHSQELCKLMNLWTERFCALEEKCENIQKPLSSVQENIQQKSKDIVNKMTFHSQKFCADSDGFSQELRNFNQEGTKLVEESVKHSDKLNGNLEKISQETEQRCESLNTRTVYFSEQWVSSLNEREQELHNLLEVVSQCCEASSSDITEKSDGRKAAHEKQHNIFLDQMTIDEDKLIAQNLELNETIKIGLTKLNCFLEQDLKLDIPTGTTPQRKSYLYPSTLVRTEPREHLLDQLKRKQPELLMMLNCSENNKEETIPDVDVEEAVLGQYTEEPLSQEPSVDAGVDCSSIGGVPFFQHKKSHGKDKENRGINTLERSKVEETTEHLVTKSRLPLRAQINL
Description for HCT-116: Cytotoxicity against human HCT116 cells after 24 hrs by MTT assay
Description for PC-3: Cytotoxicity against human PC3 cells after 24 hrs by MTT assay

`CCOC(=O)C1=C(C)NC(=O)NC1c1cccc(O)c1` (stereo not drawn) displayed a half-inhibitory concentration (IC50) in assay [1] of 14 µM.
Take `CCOC(=O)C1=C(CSc2nc3cc([N+](=O)[O-])ccc3[nH]2)N(C)C(=O)NC1c1ccccc1` (stereo not drawn): the IC50 worked out at 9.39 µM in the assay on MCF7; 44.2 µM in the assay on MRC5; 37.5 µM with BJ; 21.7 µM in assay [2]; 1.2 µM in [3]; 0.72 µM in [5]. Moreover, the 50% inhibitory concentration (IC50) in the assay with HeLa turned out to be 1.4 µM; in the assay with PC-3 it was 9.18 µM; in the assay with HCT-116, 7.29 µM. Besides, the inhibition in assay [4] came to 84.6%.
As to `CCOC(=O)C1=C(C)Nc2nc3ccccc3n2C1c1c(O)ccc2ccccc12` (stereo not drawn), the half-maximal inhibitory concentration (IC50) was found to be 40 µM in the assay on NCI-H1299 and 37 µM in the assay on PC-3.
